Data: patent publication EP0731697B1, “SSI TYRPHOSTINS AND PHARMACEUTICAL COMPOSITIONS” (priority 1993, dated 1995)

Assays:
mice = test: LPS toxicity and mortality in mice sensitized with galactosamine; type: in vivo, mice (strain (CD1))
Procedure: In this model for organ failure, mice (strain (CD1)) are injected (i.p.) simultaneously with galactosamine (18 mg/mouse) and LPS (50 ng/mouse). The LD50 of LPS used in this model is approximately 30,000 lower than the LD50 of LPS used alone. The main toxic manifestation in this model is liver damage and mice develop severe hypoglycemia and die within 7-8 hours.
Serial blood glucose determinations were done in individual animals (2 mice per group). […] Administration of the tyrphostins SSI 3, 400 ug/mouse or SSI 17, 200 ug/mouse 2 hours prior to galactosamine and LPS, prevents hypoglycemia (blood glucose level were approximately […] at 0 and the same after 24 hours) and mortality for over 5 days.

granulocytes = test: LPS-induced granulocyte accumulation in lungs and blood leukocyte changes; type: in vivo, Mouse
Description: As shown, tyrphostins exert a dramatic protective effect against LPS-induced lethal toxicity. Of the effects studied, only LPS-induced accumulation of granulocytes in the lungs and alteration in blood lymphocyte and granulocytes were not affected by SSI 3. […] The indication is therefore that tyrphostins are effective in preventing septic shock following Gram-negative sepsis, experimentally or clinically.
Mouse blood leukocyte count and differential analysis were done using Cell-Dyn 1600, Hematology Analyzer (Sequoia Turner Corporation, U.S.A).

For N#CC(C#N)=Cc1ccc([N+](=O)[O-])c(O)c1 [SSI 3], the blood glucose level (mice; after 24 hours, SSI 3 400 ug/mouse or SSI 17 200 ug/mouse 2 hours prior to galactosamine (18 mg/mouse) and LPS (50 ng/mouse), 2 mice per group) was “approximately 100 % mg”, the hypoglycemia and mortality (mice; mortality for over 5 days, SSI 3 400 ug/mouse or SSI 17 200 ug/mouse 2 hours prior to galactosamine and LPS) was “prevents” and the “alteration in blood lymphocyte and granulocytes” value (granulocytes; LPS-induced) was “not affected”. The “LPS-induced accumulation of granulocytes in the lungs” value (granulocytes; mouse, in vivo) was “not affected”.
